Results on 16 compounds are retold here after patent US20250136617A1 (The Regents of the University of Colorado, A Body Corporate, priority 2022, published 2025).

One experiment addresses CXCR4 (Homo sapiens, UniProt P61073). Nature of the experiment: β-arrestin recruitment, 384-well, Tango CXCR4-bla U2OS cells, normalized to SDF-1α. Type of experiment: cell-based. Set-up: host or cells: U2OS. The settings on record: for Emax: U2OS, read-out: TANGO β-arrestin Emax (%); for ß-arrestin recruitment Emax (%): normalized to maximal SDF-1α response. The method, then: Tango™ CXCR4-bla U2OS Cells (Invitrogen; K1779) were used for (β-arrestin recruitment assays and maintained as a monolayer culture in McCoy's 5a (Corning; 10-050-CV) supplemented with 10% dialyzed Fetal Bovine Serum (Gibco; 26400-044), 0.1 mM MEM Non-essential amino acids solution, 25 mM HEPES solution (Corning; 25-060-CI), 1 mM Sodium Pyruvate (Gibco; 11360-070), 200 μg/mL Zeocin selection reagent (Gibco; R25001), 50 μg/mL Hygromycin B (Gibco, 10687010), and 100 μg/mL Geneticin (G418 Sulfate) (Gibco, 10131035). U2OS cells were subcultured twice weekly by 0.05% Trypsin-EDTA treatment (Corning; 25-051-CI) and passaged to continue exponential growth phase for cell signaling assays. All cell cultures were maintained in cell culture incubators at 37° C. with 5% CO2. CHO-K1 CXCR4 cells (DiscoverX, Fremont, CA, USA) were used for cAMP inhibition assays and maintained as a monolayer culture in DMEM/F12 (Corning; 10-091-CV) supplemented with 10% Fetal Bovine Serum (Corning; 35-011-CV) and 100IU penicillin, […] streptomycin sulfate (Corning; 30-002-CI) and […] G418 (Gibco; 101310350. Cells were subculture 2 times weekly by o.o5% Trypsin-EDTA treatment (Corning; 25-051-CI) and passaged to continue exponential growth phase for cell signaling assays. All cell cultures were maintained in cell culture incubators at 37° C. with 5% CO2.CEM-CCRF cells (ATCC CCL-119) were used in both the migration and calcium flux assays and were cultured in growth media consisting of RPMI 1640 (Corning; 10-040-CV) supplemented with 10% Fetal Bovine Serum (Corning; 35-011-CV), and 100 IU penicillin, […] streptomycin sulfate (Corning; 30-002-CI). Cells were maintained in suspension and sub-cultured twice weekly to maintain cell densities between 0.8×10^6 cells/mL and 2.5×10^6 cells/mL to maintain exponential growth phase. Cells were harvested for use in migration and calcium flux assays at 2.0×10^6 cells/mL to 2.5×10^6 cells/mL and resuspended in assay media to desired density for respective experiments.
Tango™ CXCR4-bla U2OS Cells were resuspended in assay media consisting of DMEM (Corning; Corning, NY) supplemented with 1% dialyzed Fetal bovine serum, 0.1 mM MEM Non-essential amino acids solution, 25 mM HEPES solution (Corning; Corning, NY), 1 mM Sodium Pyruvate and 100 IU penicillin, […] streptomycin sulfate (Corning; Corning, NY) at a density of 3.0×10^5 cells/ml. Assay media FreeStyle 293 expression Medium (Gibco; 12338018) was used for testing the thiadiazine scaffold CXCR4 agonists. Cells suspension was dispensed at 30 μl per well into assay plate and incubated overnight in a cell culture incubator at 37° C. with 5% CO2. […] Following overnight incubation, LiveBlazer FRET B/G Loading Kit (Invitrogen; K1095) working reagent was prepared according to supplier guidelines and 6 μl of solution was dispensed into each well; 8 μL of solution for testing the thiadiazine scaffold CXCR4 agonists. Assay plate was covered and incubated in a dark place for two hours and Fluorescence Intensity was measured using the BMG LABTECH CLARIOstar Plus (BMG LABTECH Inc., Cary, NC) according to the LiveBlazer FRET B/G Loading Kit excitation and emission measurement guidelines.
Results are expressed as mean±SD for 3 to 5 independent experiments. Statistically significant differences in gene expression between two groups were assessed by Student's T-test, ANOVA with an appropriate post hoc test was be used for multiple comparisons. P<0.05 was considered to be statistically significant. All concentration response curves were analyzed to determine EC50 and Emax using the following equation:
where Y is the normalized response (0-100%), X is the log of concentration of compound tested, and the Hill slope is equal to 1.0% and 100% activity are specific to each assay. […]

The subject of experiment [1] is CEM-CCRF human lymphoblast cells. The experiment in a line: Transwell migration assay in CEM-CCRF lymphoblasts. Type of experiment: cell-based. The settings on record: for EC50: read-out: Migration CEM EC50. The method, then:
Thus, to confirm CXCR4 functional activity, UCUF-728 was evaluated in a 96 w transwell migration assay in CEM human lymphoblast cells.
CEM-CCRF (ATCC CCL-119) were suspended in RPMI 1640 (Corning; 10-040-CV) at 5.0×10^5 cells/mL and allowed to incubate in cell culture incubator at 37° C. with 5% CO2 for one hour. […] Plates were reassembled and placed in a cell culture incubator at 37° C. with 5% CO2 for three hours. After incubation, Multi-Screen plate was disassembled and 100 μl of solution was collected from compound receiver tray and transferred to 96 well luminescent plate (Thermo Scientific; 265302) and an equal volume of ATPLite Istep luminescence reagent (Perkin Elmer, Waltham, MA; 6016731) was added to each well. Luminescence was measured using the CLARIOstar Plus (BMG LABTECH Inc., Cary, NC).

Setting [2] is: normalized to SDF-1, read-out: TANGO β-arrestin EC50.
Where [3] appears, read: normalized to SDF-1α, read-out: ß-arrestin recruitment EC50.

SMILES strings stand for the structures. Read-outs that look alike come from different tables or passages of the source.

CXCR4, sequence (P61073 whole entry): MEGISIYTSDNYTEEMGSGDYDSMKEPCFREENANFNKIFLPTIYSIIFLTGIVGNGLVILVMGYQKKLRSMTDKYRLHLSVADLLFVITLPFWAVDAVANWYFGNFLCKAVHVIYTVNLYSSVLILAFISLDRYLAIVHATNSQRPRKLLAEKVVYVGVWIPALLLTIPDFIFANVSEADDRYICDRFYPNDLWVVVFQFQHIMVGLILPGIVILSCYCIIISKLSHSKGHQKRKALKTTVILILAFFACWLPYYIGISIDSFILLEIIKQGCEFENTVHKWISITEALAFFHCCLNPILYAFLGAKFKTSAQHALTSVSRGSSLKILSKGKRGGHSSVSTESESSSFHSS

On to `CCOc1ccccc1-c1nnc2n1N=C(c1ccc(N3CCCC3)cc1)CS2` [Entry 15], for which, on CXCR4 (normalized to SDF-1), the “TANGO β-arrestin Emax (%)” value was “A (A ≥ 70)”. The EC50 (on CXCR4 (setting [2]); in experiment [1]) was less than 5 µM throughout. Moreover, in experiment [1], the “Migration CEM Emax (%)” value is reported as “A (A ≥ 70)”.

As to `COc1ccccc1-c1nnc2n1N=C(c1ccc(N3CCOCC3)cc1)CS2` [Entry 16], the “TANGO β-arrestin Emax (%)” value on CXCR4 (normalized to SDF-1) is on record as “A (A ≥ 70)”. Besides, the EC50 (on CXCR4 (setting [2]); in experiment [1]) was 5 to 50 µM throughout. Also, the “Migration CEM Emax (%)” value in experiment [1] is “A (A ≥ 70)”.

Consider `CCOc1ccccc1-c1nnc2n1N=C(c1ccc(N3CCCCC3)cc1)CS2` [Entry 27], for which the EC50 (on CXCR4 (setting [2]); in experiment [1] (Homo sapiens)) was greater than 10 µM each time.

For `CCOc1ccccc1-c1nnc2n1N=C(c1ccc3c(c1)CCCN3)CS2` [Entry 29], the “TANGO β-arrestin Emax (%)” value at CXCR4 (normalized to SDF-1) is reported as “A (A ≥ 70)”. The EC50 at CXCR4 (setting [2]) was less than 5 µM. Also, in experiment [1], the “Migration CEM Emax (%)” value is listed as “C (C ≤ 35)” and the EC50 fell in the range of 5 to 50 µM.

As for `CCOc1ccccc1-c1nnc2n1N=C(c1ccc(NC(C)=O)cc1)CS2` [Entry 30], on CXCR4 (normalized to SDF-1), the “TANGO β-arrestin Emax (%)” value is given as “C (C ≤ 35)”. The EC50 on CXCR4 (setting [2]) is less than 5 µM; at CXCR4 (setting [3]), greater than 10 µM; in experiment [1], greater than 10 µM.

With `CCOc1ccccc1-c1nnc2n1N=C(c1ccc(NC(=O)C(C)C)cc1)CS2` [Entry 31], the EC50 (on CXCR4 (setting [2]); at CXCR4 (setting [3]); in experiment [1]) was greater than 10 µM throughout.

Consider `CCOc1ccccc1-c1nnc2n1N=C(c1ccc(NC(=O)C3CC3)cc1)CS2` [Entry 32], for which the “TANGO β-arrestin Emax (%)” value on CXCR4 (normalized to SDF-1) was “A (A ≥ 70)”. In addition, at CXCR4 (setting [2]), the EC50 was less than 5 µM. Also, in experiment [1], the “Migration CEM Emax (%)” value is “C (C ≤ 35)” and the EC50 was less than 5 µM.

A word on the Emax: it is the size of the effect at its maximum, as opposed to the concentration needed. On to `CCOc1ccccc1-c1nnc2n1N=C(c1ccc(NC(=O)c3ccccc3)cc1)CS2` [Entry 34], for which the values for the Emax (at CXCR4 (normalized to SDF-1); in experiment [1] (Homo sapiens)) were 35 to 70% and less than 35%, respectively. Besides, the EC50 (at CXCR4 (setting [2]); in experiment [1] (Homo sapiens)) was less than 5 µM each time.

Consider `CCOc1ccccc1-c1nnc2n1N=C(c1ccc(NC(=O)c3ccccc3C(=O)O)cc1)CS2` [Entry 35], for which the EC50 (at CXCR4 (setting [2]); in experiment [1] (Homo sapiens)) was greater than 10 µM throughout.

Turning to `CCOc1ccccc1-c1nnc2n1N=C(c1ccc(NC(=O)c3cccc(C(=O)OC)c3)cc1)CS2` [Entry 36], the EC50 (on CXCR4 (setting [2]); in experiment [1] (Homo sapiens)) was greater than 10 µM each time.

With `CCOc1ccccc1-c1nnc2n1N=C(c1ccc(NC(=O)c3ccc(C(=O)OC)cc3)cc1)CS2` [Entry 37], the EC50 (on CXCR4 (setting [2]); in experiment [1] (Homo sapiens)) was greater than 10 µM in each case.

For the compound `CCOC(=O)CNc1ccc(C2=Nn3c(nnc3-c3ccccc3OCC)SC2)cc1` [Entry 40], the “TANGO β-arrestin Emax (%)” value on CXCR4 (normalized to SDF-1) is given as “C (C ≤ 35)”. Further, the EC50 was less than 5 µM at CXCR4 (setting [2]), greater than 5 µM on CXCR4 (setting [3]) and 5 to 50 µM in experiment [1]. In addition, the “Migration CEM Emax (%)” value in experiment [1] is “C (C ≤ 35)”.

Take `CCOC(=O)CCNc1ccc(C2=Nn3c(nnc3-c3ccccc3OCC)SC2)cc1` [Entry 41]: the figures for the Emax (at CXCR4 (normalized to SDF-1); in experiment [1] (Homo sapiens)) were 35 to 70% and less than 35%, respectively. Further, the EC50 (on CXCR4 (setting [2]); in experiment [1] (Homo sapiens)) was less than 5 µM in each case.

For `C#CCCCNc1ccc(C2=Nn3c(nnc3-c3ccccc3OCC)SC2)cc1` [Entry 43], the “TANGO β-arrestin Emax (%)” value at CXCR4 (normalized to SDF-1) is on record as “C (C ≤ 35)”. Further, the EC50 on CXCR4 (setting [2]) is less than 5 µM. Besides, in experiment [1], the “Migration CEM Emax (%)” value is recorded as “C (C ≤ 35)”.

`CCOc1ccccc1-c1nnc2n1N=C(c1ccc(NC3CCCC3)cc1)CS2` [Entry 45]: on CXCR4 (normalized to SDF-1), the “TANGO β-arrestin Emax (%)” value is given as “C (C ≤ 35)”. The EC50 is less than 5 µM at CXCR4 (setting [2]), 1.4 µM at CXCR4 (setting [3]) and less than 5 µM in experiment [1]. The “ß-arrestin recruitment Emax (%)” value at CXCR4 amounted to 31%. The “Migration CEM Emax (%)” value in experiment [1] was “C (C ≤ 35)”.

On to `CCOc1ccccc1-c1nnc2n1N=C(c1ccc(NC3CCCCC3)cc1)CS2` [Entry 46], for which the “TANGO β-arrestin Emax (%)” value on CXCR4 (normalized to SDF-1) is recorded as “C (C ≤ 35)”. Besides, the EC50 on CXCR4 (setting [2]) is less than 5 µM; on CXCR4 (setting [3]), 0.77 µM; in experiment [1] it was less than 5 µM. Also, on CXCR4, the “ß-arrestin recruitment Emax (%)” value was 10%. Also, the “Migration CEM Emax (%)” value in experiment [1] is reported as “C (C ≤ 35)”.
